Measurements as given in patent US8741897B2, “Glucocorticoid mimetics, methods of making them, pharmaceutical compositions and uses thereof” (Boehringer Ingelheim Pharmaceuticals Inc., priority 2003, dated 2014).

Assays:
[1] = biological target: T1, human glucocorticoid receptor (GR) complex (Homo sapiens, UniProt P04150); assay: Glucocorticoid receptor competitive binding assay (fluorescence polarization, TAMRA-labeled dexamethasone probe); conditions: compounds of Formula (IA)
T1 construct: made in house; host or cells: insect expression system (baculovirus lysate)
T1 sequence (P04150 1-777): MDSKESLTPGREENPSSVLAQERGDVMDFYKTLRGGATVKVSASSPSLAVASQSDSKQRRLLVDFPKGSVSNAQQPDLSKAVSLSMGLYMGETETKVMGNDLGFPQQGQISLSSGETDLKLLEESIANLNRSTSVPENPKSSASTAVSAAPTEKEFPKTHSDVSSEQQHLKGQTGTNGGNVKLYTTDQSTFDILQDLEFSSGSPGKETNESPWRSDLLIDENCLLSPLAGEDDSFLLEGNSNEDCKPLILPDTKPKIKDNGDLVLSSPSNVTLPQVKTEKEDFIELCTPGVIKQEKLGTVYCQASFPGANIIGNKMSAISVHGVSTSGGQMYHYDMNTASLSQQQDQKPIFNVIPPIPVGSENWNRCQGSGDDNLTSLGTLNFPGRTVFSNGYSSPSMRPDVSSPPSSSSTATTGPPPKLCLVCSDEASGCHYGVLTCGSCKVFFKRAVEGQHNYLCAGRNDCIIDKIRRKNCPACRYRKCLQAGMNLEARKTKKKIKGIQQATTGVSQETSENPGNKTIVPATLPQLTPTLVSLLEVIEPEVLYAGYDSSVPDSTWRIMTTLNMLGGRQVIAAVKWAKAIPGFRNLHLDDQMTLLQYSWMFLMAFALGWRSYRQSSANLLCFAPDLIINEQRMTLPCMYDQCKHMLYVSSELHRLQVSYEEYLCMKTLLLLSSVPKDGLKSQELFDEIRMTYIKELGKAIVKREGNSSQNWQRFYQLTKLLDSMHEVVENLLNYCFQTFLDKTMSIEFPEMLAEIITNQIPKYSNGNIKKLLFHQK
How it was run: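 Fluorescence-polarization competition against 15 nM TAMRA-dexamethasone (stock added to the mix) for human GR complex from baculovirus lysate diluted 1:170. Buffer: 10 mM TES, 50 mM KCl, 20 mM Na2MoO4, 1.5 mM EDTA, 0.04% CHAPS, 10% glycerol, 1 mM DTT, pH 7.4. IC50 from 4-parameter logistic fit.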

[2] = system: glucocorticoid receptor function; assay: one or more of the above assays (GR binding and glucocorticoid receptor cell assays: aromatase, IL-6, TAT, MMTV-Luc, IL-8, ICAM-Luc); assay type: cell-based; conditions: assay not specified per compound

Row | Structure (SMILES) | activity in the GR binding assay [1] | activity as agonists of the glucocorticoid receptor function in one or more of the above assays [2]
1 | COc1ccc2[nH]c(CC(O)(CC(C)(C)c3cc(F)ccc3C)C(F)(F)F)cc2n1 (stereo not shown) [1,1,1-Trifluoro-4-(5-fluoro-2-methylphenyl)-2-(5-methoxy-1H-pyrrolo[3,2-b]pyridin-2-ylmethyl)-4-methylpentan-2-ol] | potent activity | potent agonists
2 | CC(C)(CC(O)(Cn1ccc2ncccc21)C(F)(F)F)c1cc(Cl)cc2c1OCC2 (stereo not shown) [4-(5-Chloro-2,3-dihydrobenzofuran-7-yl)-1,1,1-trifluoro-4-methyl-2-pyrrolo[3,2-b]pyridin-1-ylmethylpentan-2-ol] | potent activity | potent agonists
3 | Cc1cc(C#N)cc2[nH]c(CC(O)(CC(C)(C)c3ccc(F)cc3O)C(F)(F)F)cc12 (stereo not shown) [2-[4-(4-Fluoro-2-hydroxyphenyl)-2-hydroxy-4-methyl-2-trifluoromethylpentyl]-4-methyl-1H-indole-6-carbonitrile] | potent activity | potent agonists
4 | CC(C)(CC(O)(Cc1cc2ccccc2[nH]1)C(F)(F)F)c1ccc(F)cc1 (stereo not shown) [1,1,1-Trifluoro-4-(4-fluorophenyl)-2-(1H-indol-2-ylmethyl)-4-methylpentan-2-ol] | potent activity | potent agonists
5 | Cc1ccc(F)cc1C(C)(C)CC(O)(Cc1cc2cnccc2s1)C(F)(F)F (stereo not shown) [1,1,1-Trifluoro-4-(5-fluoro-2-methylphenyl)-4-methyl-2-thieno[3,2-c]pyridin-2-ylmethylpentan-2-ol] | potent activity | potent agonists
6 | CC(C)(C)c1ccc(O)c(C(C)(C)CC(O)(Cc2[nH]c3ccccc3c2C#N)C(F)(F)F)c1 (stereo not shown) [2-[4-(5-tert-Butyl-2-hydroxyphenyl)-2-hydroxy-4-methyl-2-trifluoromethylpentyl]-1H-indole-3-carbonitrile] | potent activity | potent agonists
7 | COc1cc(F)ccc1C(C)(C)CC(O)(Cc1cc(C)nc(C)c1)C(F)(F)F (stereo not shown) [2-(2,6-Dimethylpyridin-4-ylmethyl)-1,1,1-trifluoro-4-(4-fluoro-2-methoxyphenyl)-4-methylpentan-2-ol] | potent activity | potent agonists
8 | Cc1c(CC(O)(CC(C)(C)c2cccc(F)c2)C(F)(F)F)[nH]c2ccccc12 (stereo not shown) [1,1,1-Trifluoro-4-(3-fluorophenyl)-4-methyl-2-(3-methyl-1H-indol-2-ylmethyl)pentan-2-ol] | potent activity | potent agonists
9 | CC(C)(CC(O)(Cc1cc2cc([N+](=O)[O-])ccc2[nH]1)C(F)(F)F)c1cc(F)ccc1O (stereo not shown) [4-Fluoro-2-[4,4,4-trifluoro-3-hydroxy-1,1-dimethyl-3-(5-nitro-1H-indol-2-ylmethyl)butyl]phenol] | potent activity | potent agonists
10 | CC(C)(CC(O)(Cc1cc2ccncc2[nH]1)C(F)(F)F)c1cc(Br)cc2c1OCC2 (stereo not shown) [4-(5-Bromo-2,3-dihydrobenzofuran-7-yl)-1,1,1-trifluoro-4-methyl-2-(1H-pyrrolo[2,3-c]pyridin-2-ylmethyl)pentan-2-ol] | potent activity | potent agonists
11 | CC(C)(CC(O)(Cc1ccnc2ccccc12)C(F)(F)F)c1cccc(-c2ccccc2)c1 (stereo not shown) [4-Biphenyl-3-yl-1,1,1-trifluoro-4-methyl-2-quinolin-4-ylmethylpentan-2-ol] | potent activity | potent agonists
12 | CC(C)(CC(O)(Cc1cc2cc(C(=O)N3CCOCC3)ccc2[nH]1)C(F)(F)F)c1cc(Br)cc2c1OCC2 (stereo not shown) [{2-[4-(5-Bromo-2,3-dihydrobenzofuran-7-yl)-2-hydroxy-4-methyl-2-trifluoromethylpentyl]-1H-indol-5-yl}morpholin-4-ylmethanone] | potent activity | potent agonists

Second part, led by results:

Row | activity in the GR binding assay [1] | Structure (SMILES) | activity as agonists of the glucocorticoid receptor function in one or more of the above assays [2]
13 | potent activity | COc1ccc(F)cc1C(C)(C)CC(O)(Cc1cc2cc(C#N)ncc2[nH]1)C(F)(F)F (stereo not shown) [2-[4-(5-Fluoro-2-methoxyphenyl)-2-hydroxy-4-methyl-2-trifluoromethylpentyl]-1H-pyrrolo[2,3-c]pyridine-5-carbonitrile] | potent agonists
14 | potent activity | Cc1ccc(F)cc1C(C)(C)CC(O)(Cc1cc2cc(N(C)C)ncc2[nH]1)C(F)(F)F (stereo not shown) [2-(5-Dimethylamino-1H-pyrrolo[2,3-c]pyridin-2-ylmethyl)-1,1,1-trifluoro-4-(5-fluoro-2-methylphenyl)-4-methylpentan-2-ol] | potent agonists
15 | potent activity | COc1ccc(F)cc1C(C)(C)CC(O)(Cc1cc2cc(C(N)=O)ccc2[nH]1)C(F)(F)F (stereo not shown) [2-[4-(5-Fluoro-2-methoxyphenyl)-2-hydroxy-4-methyl-2-trifluoromethylpentyl]-1H-indole-5-carboxylic acid amide] | potent agonists
16 | potent activity | COc1ccc(F)cc1C(C)(C)CC(O)(Cc1cc2cncnc2[nH]1)C(F)(F)F (stereo not shown) [1,1,1-Trifluoro-4-(5-fluoro-2-methoxyphenyl)-4-methyl-2-(7H-pyrrolo[2,3-d]pyrimidin-6-ylmethyl)pentan-2-ol] | potent agonists
17 | potent activity | COc1ccc(F)cc1C(C)(C)CC(O)(Cc1cc2cc(C(F)(F)F)ncc2[nH]1)C(F)(F)F (stereo not shown) [1,1,1-Trifluoro-4-(5-fluoro-2-methoxyphenyl)-4-methyl-2-(5-trifluoromethyl-1H-pyrrolo[2,3-c]pyridin-2-ylmethyl)pentan-2-ol] | potent agonists
18 | potent activity | Cc1ccc(F)cc1C(C)(C)CC(O)(Cc1cc2nc(C#N)ccc2[nH]1)C(F)(F)F (stereo not shown) [2-[4-(5-Fluoro-2-methylphenyl)-2-hydroxy-4-methyl-2-trifluoromethylpentyl]-1H-pyrrolo[3,2-b]pyridine-5-carbonitrile] | potent agonists
19 | potent activity | COc1ccc(F)cc1C(C)(C)CC(O)(Cc1cc2cc(Cl)nc(Cl)c2[nH]1)C(F)(F)F (stereo not shown) [2-(5,7-Dichloro-1H-pyrrolo[2,3-c]pyridin-2-ylmethyl)-1,1,1-trifluoro-4-(5-fluoro-2-methoxyphenyl)-4-methylpentan-2-ol] | potent agonists
20 | potent activity | COc1ccc(F)cc1C(C)(C)CC(O)(Cc1cc2c(C)nc(C)cc2[nH]1)C(F)(F)F (stereo not shown) [2-(4,6-Dimethyl-1H-pyrrolo[3,2-c]pyridin-2-ylmethyl)-1,1,1-trifluoro-4-(5-fluoro-2-methoxyphenyl)-4-methylpentan-2-ol] | potent agonists
21 | potent activity | COc1ccc(OC)c(C(C)(C)CC(O)(Cc2cc3ccncc3[nH]2)C(F)(F)F)c1 (stereo not shown) [4-(2,5-Dimethoxyphenyl)-1,1,1-trifluoro-4-methyl-2-(1H-pyrrolo[2,3-c]pyridin-2-ylmethyl)pentan-2-ol] | potent agonists
22 | potent activity | COc1cc2cc(CC(O)(CC(C)(C)c3cc(F)ccc3C)C(F)(F)F)[nH]c2cn1 (stereo not shown) [1,1,1-Trifluoro-4-(5-fluoro-2-methylphenyl)-2-(5-methoxy-1H-pyrrolo[2,3-c]pyridin-2-ylmethyl)-4-methylpentan-2-ol] | potent agonists
23 | potent activity | COc1ccc(F)cc1C(C)(C)CC(O)(Cc1cc2c(C)nccc2[nH]1)C(F)(F)F (stereo not shown) [1,1,1-Trifluoro-4-(5-fluoro-2-methoxyphenyl)-4-methyl-2-(4-methyl-1H pyrrolo[3,2-c]pyridin-2-ylmethyl)pentan-2-ol] | potent agonists
